System: SEM cells
Assay: cell viability relative to DMSO control; higher = less cytotoxic
Conditions: 48 h
Summary of the method: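 Viability is a per-plate percentage relative to DMSO wells, with cell-free wells as background. CellTiter-Glo One luminescence was read after 48 h at 37°C on 1536-well plates (5 μl) of NOMO1 or SEM (500 cells/well) or P12-Ichikawa (1000 cells/well) leukemia cells. The cells had been adapted for at least four passages in each medium and pin-dosed with library compounds in DMSO from 47 μM to 0.79 nM in 11 threefold steps.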

[1] = HPLM + 10% dialyzed FBS, 0.000781 µM
[2] = HPLM + 10% dialyzed FBS, 0.00234 µM
[3] = HPLM + 10% dialyzed FBS, 0.00702 µM
[4] = HPLM + 10% dialyzed FBS, 0.0211 µM
[5] = HPLM + 10% dialyzed FBS, 0.0632 µM
[6] = HPLM + 10% dialyzed FBS, 0.19 µM
[7] = HPLM + 10% dialyzed FBS, 0.569 µM
[8] = HPLM + 10% dialyzed FBS, 1.71 µM
[9] = HPLM + 10% dialyzed FBS, 5.12 µM
[10] = HPLM + 10% dialyzed FBS, 15.4 µM
[11] = HPLM + 10% dialyzed FBS, 46.1 µM
[12] = RPMI 5 mM glucose + 10% FBS, 0.000781 µM
[13] = RPMI 5 mM glucose + 10% FBS, 0.00234 µM
[14] = RPMI 5 mM glucose + 10% FBS, 0.00702 µM
[15] = RPMI 5 mM glucose + 10% FBS, 0.0211 µM
[16] = RPMI 5 mM glucose + 10% FBS, 0.0632 µM
[17] = RPMI 5 mM glucose + 10% FBS, 0.19 µM
[18] = RPMI 5 mM glucose + 10% FBS, 0.569 µM
[19] = RPMI 5 mM glucose + 10% FBS, 1.71 µM
[20] = RPMI 5 mM glucose + 10% FBS, 5.12 µM
[21] = RPMI 5 mM glucose + 10% FBS, 15.4 µM
[22] = RPMI 5 mM glucose + 10% FBS, 46.1 µM
[23] = RPMI 5 mM glucose + 10% dialyzed FBS, 0.000781 µM
[24] = RPMI 5 mM glucose + 10% dialyzed FBS, 0.00234 µM
[25] = RPMI 5 mM glucose + 10% dialyzed FBS, 0.00702 µM
[26] = RPMI 5 mM glucose + 10% dialyzed FBS, 0.0211 µM
[27] = RPMI 5 mM glucose + 10% dialyzed FBS, 0.0632 µM
[28] = RPMI 5 mM glucose + 10% dialyzed FBS, 0.19 µM
[29] = RPMI 5 mM glucose + 10% dialyzed FBS, 0.569 µM
[30] = RPMI 5 mM glucose + 10% dialyzed FBS, 1.71 µM
[31] = RPMI 5 mM glucose + 10% dialyzed FBS, 5.12 µM
[32] = RPMI 5 mM glucose + 10% dialyzed FBS, 15.4 µM
[33] = RPMI 5 mM glucose + 10% dialyzed FBS, 46.1 µM

| Compound | cell viability [1] | cell viability [2] | cell viability [3] | cell viability [4] | cell viability [5] | cell viability [6] | cell viability [7] | cell viability [8] | cell viability [9] | cell viability [10] | cell viability [11] | cell viability [12] | cell viability [13] | cell viability [14] | cell viability [15] | cell viability [16] | cell viability [17] | cell viability [18] | cell viability [19] | cell viability [20] | cell viability [21] | cell viability [22] | cell viability [23] | cell viability [24] | cell viability [25] | cell viability [26] | cell viability [27] | cell viability [28] | cell viability [29] | cell viability [30] | cell viability [31] | cell viability [32] | cell viability [33] |
| --- | --- | --- | --- | --- | --- | --- | --- | --- | --- | --- | --- | --- | --- | --- | --- | --- | --- | --- | --- | --- | --- | --- | --- | --- | --- | --- | --- | --- | --- | --- | --- | --- | --- |
| CN1\N=N/C2=C(N=C[N]2C1=O)C(N)=O | 112% | 114% | 132% | 111% | 121% | 88.2% | 60.9% | 57.7% | 51.2% | 38.7% | 25.3% | 85.8% | 102% | 106% | 86.2% | 88.5% | 67.7% | 47.6% | 50.6% | 41.9% | 28.4% | 24.1% | 105% | 115% | 139% | 116% | 113% | 78.7% | 58.7% | 37.4% | 31.9% | 28.9% | 20.5% |
| COc1cccc(Nc2c(C(N)=O)cnc3c(C)cc([S+](=O)([O-])c4cccc(C(=O)N(C)C)c4)cc23)c1 | 119% | 113% | 134% | 130% | 114% | 128% | 144% | 126% | 128% | 134% | 126% | 124% | 123% | 123% | 136% | 141% | 137% | 142% | 134% | 138% | 137% | 119% | 123% | 130% | 119% | 129% | 150% | 142% | 158% | 146% | 135% | 128% | 118% |
| O=[S+]([O-])(/N=C/c1c(O)ccc2ccccc12)c1cccs1 | 97% | 114% | 101% | 109% | 110% | 110% | 112% | 66.8% | 104% | 88.3% | 81.9% | 113% | 116% | 108% | 106% | 113% | 120% | 102% | 74.3% | 93.3% | 94.5% | 68.5% | 98.7% | 136% | 109% | 112% | 131% | 118% | 115% | 79.5% | 98.2% | 91.1% | 98.7% |
| NC(=O)c1cnc(-c2ccc(C3(N)CCC3)cc2)c(-c2ccccc2)c1 | 110% | 120% | 137% | 111% | 111% | 127% | 133% | 90.7% | 73.2% | 50.3% | 30.9% | 120% | 134% | 123% | 106% | 108% | 127% | 130% | 85.1% | 78% | 43.2% | 24.5% | 121% | 125% | 127% | 120% | 123% | 120% | 133% | 91.5% | 67% | 43.5% | 35.9% |
| Clc1ccccc1C(c1ccccc1)(c1ccccc1)n1cccn1 | 104% | 121% | 119% | 123% | 113% | 130% | 118% | 124% | 126% | 107% | 121% |  |  |  |  |  |  |  |  |  |  |  | 124% | 129% | 124% | 130% | 138% | 121% | 124% | 122% | 137% | 122% | 144% |

Reference: the supplement of paper PMC11451515
